# Reference: patent US5550121A, “Aminoalkylpyrrolidinylthiocarbapenem derivatives” (priority 1991, dated 1996)
# Where two headings read alike, the source gives them in different places.
# Assays:
# P. aeruginosa MB5002 = assay: in vitro antibacterial activity by agar plate dilution method (MIC); format: cell-based; settings: Pseudomonas aeruginosa, read-out: Minimum Inhibitory Concentration (MIC)
# Description: (§1) One platinum loopful of each test microorganism incubated overnight in Mueller Hinton broth, was inoculated to Mueller Hinton agar (inoculum size: 10^6 CFU/ml). Such culture media contained antibacterial agents in various concentrations. After incubation at 37° C. for 16 hours, the minimum inhibitory concentrations (MIC: μg/ml) were measured.
# (§2) The minimum inhibitory concentrations and the DHP-I susceptibility of the compounds of the present invention were compared with imipenem and the compound of REFERENCE EXAMPLE 13.
# P. aeruginosa MB5178 = assay: as above; format: cell-based; settings: Pseudomonas aeruginosa, MB5178, 16 h, read-out: Minimum Inhibitory Concentration (MIC)
# Description: as §1, §2
# [1] = Pharmacokinetics in mice after s.c. dosing, bioassay of plasma and urine; settings: mouse, sc, 20 mg/kg; for AUC / Cmax / Tmax / half-life: plasma; for dose excreted at 6 h: urine
# Description: Pharmacokinetics in mice: Groups of three 20 g ddY male mice were given a single dose of 20 mg/kg of the compound of EXAMPLE 19 and imipenem by sc route. One group of three mice was placed in a metabolism cage designed to collect the urine free from fecal contamination. At a specified time after dosing, blood and urine samples were collected from a group for bioassay. The plasma was collected from the pooled blood after centrifugation. Microbiological assays: Bioactivity in the specimens was measured was by the standard disk diffusion procedure using Bacillus subtilis ATCC12432 as a test organism.
# [2] = test system: renal dehydropeptidase I (DHP-I); settings: cited from earlier work
# [3] = test system: various gram positive bacteria and gram negative bacteria; settings: cited from earlier work
# [4] = imipenem compared with thienamycin; cited from earlier work
# [5] = test system: renal dehydropeptidase I (DHP-I); assay: DHP-I susceptibility (method by Kropp et al.), ratio to imipenem; format: in vitro ADME; settings: ratio to imipenem (=1.0); the smaller the value, the higher the stability
# Excerpt: Further, the DHP-I susceptibility was quantitatively analyzed by the method by Kropp et al., Antimicrob. Agents Chemother., vol. 22, p. 62-70 (1982), whereby the smaller the numerical value representing the ratio to imipenem (=1.0), the higher the stability.
# as §2
# [6] = test system: highly methicillin resistant Staphylococcus aureus which is resistant to imipenem and imipenem resistant Pseudomonas aeruginosa; settings: clinical field; cited from earlier work
# Pseudomonas aeruginosa = settings: superior to thienamycin; cited from earlier work
# [7] = due to the decomposition products; cited from earlier work
# [8] = in vivo; cited from earlier work
# [9] = P. aeruginosa MB5002, Mueller Hinton agar, inoculum 10^6 CFU/ml, 37° C., 16 hours
# [10] = P. aeruginosa MB5178, Mueller Hinton agar, inoculum 10^6 CFU/ml, 37° C., 16 hours
smiles,measurement,setting,value
"CC(CN)C[C@@H]1C[C@H](SC2=C(C(=O)O)N3C(=O)[C@H]([C@@H](C)O)[C@H]3[C@H]2C)CN1 (single isomer, unassigned) [Example 7]",MIC,P. aeruginosa MB5002; [9],0.78 µg/mL
"C[C@@H](O)[C@H]1C(=O)N2C(C(=O)O)=C(S[C@@H]3CN[C@H](C(O)CCN)C3)[C@H](C)[C@H]12 (single isomer, unassigned) [Example 9]",MIC,P. aeruginosa MB5178; [10],1.56 µg/mL
same,MIC,P. aeruginosa MB5002; [9],0.78 µg/mL
"C[C@@H](O)[C@H]1C(=O)N2C(C(=O)O)=C(S[C@@H]3CN[C@H](C(O)CN)C3)[C@H](C)[C@H]12 (single isomer, unassigned) [Example 13]",MIC,P. aeruginosa MB5178; [10],3.13 µg/mL
same,MIC,P. aeruginosa MB5002; [9],1.56 µg/mL
CNCC[C@@H](O)[C@@H]1C[C@H](SC2=C(C(=O)O)N3C(=O)[C@H]([C@@H](C)O)[C@H]3[C@H]2C)CN1 [Example 19],AUC,[1],13800 ng·h/mL
same,Cmax,[1],29000 ng/mL
same,Tmax,[1],10.8 min
same,half-life,[1],7.8 min
same,dose excreted at 6 h,[1],62.5%
"C[C@@H](O)[C@H]1C(=O)N2C(C(=O)O)=C(SCCN=CN)C[C@H]12 [Imipenem, (5R,6S,8R)-3-[[2-(formimidoylamino)ethyl]thio]-6-(1-hydroxyethyl)-7-oxo-1-azabicyclo[3.2.0]hept-2-en-2-carboxylic acid monohydrate]",AUC,[1],9500 ng·h/mL
same,Cmax,[1],21500 ng/mL
same,Tmax,[1],10.8 min
same,half-life,[1],7.2 min
same,dose excreted at 6 h,[1],21.5%
same,decomposition by DHP-I,[2],likely to be decomposed by DHP-I in the human kidney
same,antibacterial activities compared with thienamycin,[3]; various types of bacteria,equal or higher level than thienamycin
same,stability in the solid form or in an aqueous solution,[4],remarkably improved over thienamycin
same,DHP-I susceptibility,[5],1.0
same,treating effects against resistant bacteria,[6],does not show adequate treating effects
same,antibacterial activities compared with thienamycin,Pseudomonas aeruginosa,2 to 4 times
same,toxicity against the kidney,[7],presents toxicity against the kidney due to the decomposition products
same,MIC,P. aeruginosa MB5178,25 µg/mL
same,MIC,"P. aeruginosa MB5002; MB5002, 16 h",1.56 µg/mL
"CC(=O)NC[C@@H]1C[C@H](SC2=C(C(=O)O)N3C(=O)[C@H]([C@@H](C)O)[C@H]3[C@H]2C)CN1 [compound 13, (1R,5S,6S)-2-[(2S,4S)-2-(Acetylaminomethyl)pyrrolidin-4-ylthio]-6-[(1R)-1-hydroxyethyl]-1-methyl-1-carbapen-2-em-3-carboxylic Acid]",DHP-I susceptibility,[5],0.7
same,MIC,P. aeruginosa MB5178; [10],12.5 µg/mL
same,MIC,P. aeruginosa MB5002; [9],6.25 µg/mL
C[C@@H](O)[C@H]1C(=O)N2C(C(=O)O)=C(SCCN)C[C@H]12 [thienamycin],decomposition by DHP-I,[2],likely to be decomposed
same,antibacterial activities,"[3]; statement in words, prior art",strong antibacterial activities over a wide range against gram positive bacteria and gram negative bacteria
same,recovery rate in the urine,[8],low
